Results taken from patent publication US20120010075A1 (priority 2009, published 2012).
Read-outs that look alike come from different tables or passages of the source.

Columns and labels:
[1] = test system: Leptosphaeria nodorum (LEPTNO); assay: In vitro fungitoxicity of hydrazones with and without copper towards Leptosphaeria nodorum (Example 26); type: cell-based; settings: 72 h at 25° C.; for inhibition of growth at 0.05 µg/mL: Parastagonospora nodorum, 72 h, read-out: LEPTNO % Inhn. Minus Copper Observed
Phytophthora infestans [2] = type: in vivo, Phytophthora infestans on tomato; settings: applied 24 h before inoculation, assessed 7 days after inoculation
Phytophthora capsici = assay: In vitro fungitoxicity of hydrazones with and without copper towards Phytophthora capsici (Example 28, Table 3); type: cell-based; settings: for % Inhn Plus copper Observed: copper-plus AS medium (CuCl2, 50 μM); for inhibition of growth at 0.05 µg/mL / inhibition of growth at 0.039 µg/mL: Phytophthora capsici, read-out: % Inhn Minus copper Observed
Ustilago maydis = assay: In vitro fungitoxicity of hydrazones with and without copper towards Ustilago maydis (Example 29, Table 4); type: cell-based; settings: 1 μg/mL, 48 h; for % Inhn. Plus copper Observed: copper-plus medium (CuCl2, 10 μM); for inhibition of growth at 1 µg/mL: Mycosarcoma maydis, copper-minus medium, read-out: % Inhn. Minus copper Observed
[3] = test system: Septoria tritici isolate USA-184; assay: In vitro fungitoxicity of hydrazones with and without copper towards Septoria tritici (Example 30, Table 5); type: cell-based; settings: Zymoseptoria tritici, 0.05 μg/mL
Phytophthora infestans [4] = type: in vivo, Phytophthora infestans on tomato (Outdoor Girl); settings: no hydrazone
[5] = compound 0.05 μg/mL, copper-minus medium
[6] = compound 0.05 μg/mL, copper-plus medium (CuCl2.2H2O)
[7] = hydrazone 50 ppm + 50 μM CuCl2.2H2O, tomato
[8] = 0.050 μg/mL, copper-minus AS medium, 48 h
[9] = Colby formula, CuCl2, read-out: % Inhibition Plus copper Predicted
[10] = copper-minus medium, 90 h, read-out: % Inhibition Minus copper Observed
[11] = copper-plus medium CuCl2, 90 h, read-out: % Inhibition Plus copper Observed
[12] = copper-minus medium, test compound Concn. 0.05 μg/mL
[13] = copper-plus medium (CuCl2 10 μM), test compound Concn. 0.05 μg/mL
[14] = hydrazone 50 ppm with 50 μM CuCl2.2H2O, tomato late blight
[15] = 0.039 μg/mL, copper-minus AS medium, 48 h

SMILES	inhibition of growth at 0.05 µg/mL [1, 5] [%]	LEPTNO % Inhn. Plus Copper Observed [1, 6] [%]	TLB % Control (Phytophthora infestans [2]; [7]) [%]	% Inhn Plus copper Observed (Phytophthora capsici; 0.050 μg/mL, 48 h) [%]	inhibition of growth at 0.05 µg/mL (Phytophthora capsici; [8]) [%]	% Inhn. Plus copper Observed (Ustilago maydis) [%]	inhibition of growth at 1 µg/mL (Ustilago maydis) [%]	inhibition at 0.05 µg/mL [3, 9] [%]	inhibition at 0.05 µg/mL [3, 10] [%]	inhibition at 0.05 µg/mL [3, 11] [%]	melting point [°C]	other results
COc1cc(Br)cc(/C=N/NC(=O)c2cccc(Br)c2)c1O [Example 204]	7.3	95.5	77.2	81.9	6	77.0	0	0	0	84.4		
C/C(=N\NC(=O)c1ccccc1)c1ccccc1O [Example 230]	9	98.3	65.0	93.6	5.8	94.4	11.9	43.6	43.6	96.7	185 to 187	
O.O.O.O.O.O=S(=O)([O-])[O-].[Cu+2] [CuSO4, CuSO4.5H2O, reference compound]												% Control of Tomato Late Blight (Phytophthora infestans [4]; CuSO4 10 μM alone): 1.7%; % Control of Tomato Late Blight (Phytophthora infestans [4]; CuSO4 50 μM alone): 4.8%; % Control of Tomato Late Blight (Phytophthora infestans [4]; CuSO4 200 μM alone): 49.7%; % Control of Tomato Late Blight (Phytophthora infestans [4]; CuSO4 400 μM alone): 76.0%; % Control of Tomato Late Blight (Phytophthora infestans [4]; CuSO4 800 μM alone): 82.9%
Cc1ccccc1C(=O)N/N=C/c1cc(Cl)cc(Br)c1O [Example 162]	0	96.9	94.0	91.6	5.2	96.4	8.8	36.3	36.3	97.1		
C/C(=N\NC(=O)Cc1ccccc1)c1cc(Cl)cc(Cl)c1O [Example 140]	6.7	96.7	81.0	91.4	0	95.7	0	0	0	96.6	199 to 204	
O=C(N/N=C/c1cc(C(F)(F)F)cc(Cl)c1O)c1ccccc1O [Example 329]						41.8	16.2	14.9	14.9	55.1	258 to 260	inhibition of growth at 0.05 µg/mL [1, 12]: 14%; LEPTNO % Inhn. Plus Copper Observed [1, 13]: 93.5%; TLB % Control (Phytophthora infestans [2]; [14]): 99.0%
O=C(N/N=C/c1cc(Cl)ccc1O)c1ccccc1O [Example 177]	12.5	95.2	91.0	92.4	0	33.3	0	0.2	0.2	95.2		
O=C(N/N=C/c1c(Cl)ccc(Cl)c1O)c1cccc(Cl)c1 [Example 369]				44.5	0	93.6	3.1	9.3	9.3	93.2	232 to 234	inhibition of growth at 0.05 µg/mL [1, 12]: 7%; LEPTNO % Inhn. Plus Copper Observed [1, 13]: 95.5%; TLB % Control (Phytophthora infestans [2]; [14]): 98.0%
O=C(N/N=C/c1cc(Br)cc(Br)c1O)c1ccccc1 [Example 121]	0	98.3	88.1	90.4	0	96.9	0	9.7	9.7	96.5		
O=C(N/N=C/c1cccc(F)c1O)c1ccccc1 [Example 15]		96.6	58.5								197 to 198	LEPTNO % Inhn. Minus Copper Observed [1, 5]: 4.4%; % Inhn Plus copper Predicted (Phytophthora capsici; 0.039 μg/mL, Colby formula, CuCl2, 50 μM): 81.2%; % Inhn Minus copper Observed (Phytophthora capsici; [15]): 80.4%; % Inhn Plus copper Observed (Phytophthora capsici; 0.039 μg/mL, 48 h): 91.8%
O=C(N/N=C/c1ccccc1O)c1cc(I)ccc1Cl [Example 224]	0	91.0	67.3	93.3	6.2						222 to 226	
O=C(N/N=C/c1cc(Cl)cc(Cl)c1O)c1cc(I)ccc1Br [Example 222]	0	94.5	67.3	76.8	11.3						201 to 219	
O=C(N/N=C/c1cc(Cl)cc(Cl)c1O)c1cc(I)ccc1Cl [Example 225]	0	96.6	78.2	82.8	11.4						198 to 201	
Cc1ccc(C(=O)N/N=C/c2ccccc2O)c(Br)c1 [Example 227]	5	95.0	52.7	93.4	1.7						86 to 122	
O=C(N/N=C/c1cc(Br)cc(Br)c1O)c1cc(I)ccc1Br [Example 223]	26.9	97.2	54.0	51.3	2.5						215 to 216	
Cc1cc(C)cc(C(=O)N/N=C/c2cc(Cl)cc(Cl)c2O)c1 [Example 102]	0	93.4	74.0								207 to 209	% Inhn Plus copper Observed (Phytophthora capsici; 0.039 μg/mL, 48 h): 93.6%; inhibition of growth at 0.039 µg/mL (Phytophthora capsici; [15]): 15.7%
O=C(N/N=C/c1cc(Cl)cc(Cl)c1O)c1ccccc1C(F)(F)F [Example 56]	2.1	96.3	81.3								106 to 111	% Inhn Plus copper Observed (Phytophthora capsici; 0.039 μg/mL, 48 h): 94.1%; inhibition of growth at 0.039 µg/mL (Phytophthora capsici; [15]): 57.5%
